From publication PMC3465084 (Journal of medicinal chemistry, 2012)

How the values were obtained:
CD36 scavenger receptor = assay: Competition for binding of CuOxLDL to the CD36 scavenger receptor; settings: Figure S1, Supporting Information
J774 murine macrophages = assay: CD36 Macrophage Receptor Binding Competition Assay; settings: competition with OxLDL binding
[1] = Stability in aqueous solution; type: physicochemical
Water solubility = type: physicochemical
mAb E06 = assay: Binding of mAb E06 to compound 9; settings: Figure S2, Supporting Information
macrophages = settings: at the concentrations used, even at room temperature for up to 72 hours; cell number or protein content, time course studies of cell function (data not shown)

CCCCCCCCCCCCCCCC(=O)OC[C@H](COP(=O)([O-])OCC[N+](C)(C)C)OC(=O)CCCCN(C)CCCC[C@H](NC(=O)[C@@H](NC(=O)CNC(=O)[C@@H](NC(C)=O)[C@@H](C)O)[C@@H](C)O)C(=O)NCC(=O)NCC(=O)O [Compound 9, (4S,10S,13S,25R)-13-((2-((carboxymethyl)amino)-2-oxoethyl)carbamoyl)-4,10-bis((R)-1-hydroxyethyl)-18-methyl-2,5,8,11,23-pentaoxo-25-((palmitoyloxy)methyl)-24-oxa-3,6,9,12,18-pentaazahexacosan-26-yl-(2-(trimethylammonio)-ethyl) phosphate]
competition for the binding of CuOxLDL to the CD36 scavenger receptor (in words) (CD36 scavenger receptor): competes with high affinity
binding to macrophage scavenger receptors (in words) (J774 murine macrophages): binds to macrophage scavenger receptors
stability in aqueous solution (in words) [1]: stable
water solubility (in words) (Water solubility): water soluble
binding of mAb E06 (in words) (mAb E06): specifically binds
impact on viability of macrophages (macrophages): no impact
